Here are results for three compounds from patent US20100204108A1, “USE OF NEUROTROPHIC FACTOR FOR RETINAL CHOLINERGIC NEURONS (NFRCN) AND CHORIONIC GONADOTROPIN-BETA (109-145) AS THERAPEUTIC AGENTS” (priority 2007, published 2010).

Ends that are not written are not given here.

The subject of test [1] is hepatitis B virus (HBV) ayw strain. Description: HBV assay in HepG2-2.2.15 cells, secreted HBV DNA by TaqMan PCR. The settings on record: 10 micrograms per ml, six days, HBV DNA in supernatant. The class given is cell-based.
Test [2] concerns Th1/Th2 cytokines in spleen cells. Description: Th1/Th2 cytokine profiling assay (Ovalbumin-restimulated spleen cells, CBA kit). The format is cell-based, Balb/c mice. The conditions noted are these: 10 micrograms per ml; Ovalbumin restimulation; 72 hours.
Test [3] has as its system LPS-induced TNF-alpha production in human macrophages. Description: TNF alpha production assay (LPS-stimulated macrophages, ELISA). The format is cell-based. The settings on record: 10 micrograms per ml; LPS 200 ng/ml; overnight. The source says: Not stimulated macrophages served as negative background control.
For test [4], the system named is HUVEC. Description: Endothelial tube formation assay. The conditions noted are these: 10 micrograms per ml, 20 hours. The class given is cell-based, human. From the text: Positive control was vehicle only.
For test [5], the system named is HCMV strain AD169. Description: HCMV plaque formation assay in MRC-5 cells. The settings on record: 10 micrograms per ml, 7-10 days.
Test [6] relates to HIV-1IIIB. The settings on record: positive controls.

As for “Tyr-Leu-Leu-Pro-Ala-Gln-Val-Asn-Ile-Asp-OH (YLLPAQVNID-OH) [peptide 1]”, in test [1], the “inhibition of HBV replication as compared to the virus control infection” value stood at 65.0%. In test [2], the “IFNγ spleen cells; TH1 response (% of control)” value was 135.2 % of control, the “IL-2 spleen cells (% of control)” value is reported as 215.4 % of control, the “IL-4 spleen cells; TH2 response (% of control)” value is listed as 138.4 % of control and the “IL-5 spleen cells; TH2 response (% of control)” value was 111.1 % of control. Moreover, in test [2], the “TNF-a spleen cells; TH1 response (% of control)” value is 165.0 % of control. Besides, in test [3], the “induction of the LPS-induced TNF-alpha production in human macrophages” value came to 18%. Besides, the “inhibition of the tube formation of endothelial cells” value in test [4] was 25%. Further, the “inhibition of HCMV plaque formation as compared to the virus control” value in test [5] was “did not inhibit”.
On to `Cc1cn([C@H]2C[C@H](N=[N+]=[N-])[C@@H](CO)O2)c(=O)[nH]c1=O` [AZT], for which the “antiviral activity of positive control compounds (HIV-1)” value in test [6] is on record as “expected levels of antiviral activity”.
Same read-out and setting: as for `CC(C)(C)NC(=O)[C@@H]1CN(Cc2cccnc2)CCN1C[C@@H](O)C[C@@H](Cc1ccccc1)C(=O)N[C@H]1c2ccccc2C[C@H]1O` [indinavir], the entry is “expected levels of antiviral activity”.
